According to patent US20070212786A1, “Monitoring heparin by microelectronic devices” (priority 2005, published 2007):

Target: T1, AT-III (Homo sapiens, UniProt P01008)
T1 construct: purchased Bayer Corp
Test: AT-III field-effect sensor binding (differential surface potential dose-response)
Conditions: covalently immobilized biotinylated AT-III on the active sensor, BSA-passivated control sensor, dose-response curve FIG. 4B
Description: In one embodiment, AT-III is used as a covalently immobilized surface receptor. In this embodiment, the present invention can monitor active heparin. FIG. 4A illustrates the surface immobilization chemistry according to this embodiment. The surface immobilization chemistry involves aldehyde-terminated silanization of the SiO2 surface, followed by the reductive amination of the aldehyde groups to the surface-exposed amino groups of avidin, blocking the unreacted sites by ethanolamine, and attachment of covalently-immobilized avidin to biotinylated AT-III. […] Upon deblocking, the resulting bAT-III remains fully active because the heparin-binding site remains intact and unhindered because the introduced biotin groups are positioned away from it. This immobilization strategy ensures full activity and the desired surface orientation of AT-III for maximizing the sensor performance. […] The selectivity of the AT-III sensor to heparin sequence was measured by examining the binding affinity to chondroitin sulfate, a negatively charged polysaccharide structurally related to heparin. […]
The surface potential of the filed sensitive region was determined by applying an AC signal (50 mV sine wave at 4 kHz) to the reference electrode and measuring the resulting current through the EIS structure with a current preamp (Keithley Model 428) and lock-in amplifier. […]

T1 sequence (P01008 33-464): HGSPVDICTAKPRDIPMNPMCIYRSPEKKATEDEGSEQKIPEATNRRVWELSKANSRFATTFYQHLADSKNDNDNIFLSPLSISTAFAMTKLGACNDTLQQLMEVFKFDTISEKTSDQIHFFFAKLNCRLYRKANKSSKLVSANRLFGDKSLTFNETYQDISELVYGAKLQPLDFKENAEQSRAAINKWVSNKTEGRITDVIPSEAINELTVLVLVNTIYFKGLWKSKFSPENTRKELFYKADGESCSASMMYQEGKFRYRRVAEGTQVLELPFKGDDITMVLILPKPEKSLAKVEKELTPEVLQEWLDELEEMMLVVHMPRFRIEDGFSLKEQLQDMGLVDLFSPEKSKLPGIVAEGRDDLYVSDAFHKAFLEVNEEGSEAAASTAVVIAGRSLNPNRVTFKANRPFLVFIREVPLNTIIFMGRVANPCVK

## chondroitin sulfate
  response of the AT-III sensor (binding affinity, selectivity versus heparin): neglible
